Where two headings read alike, the source gives them in different places.
Tests used:
polyphenol oxidase [1] = assay: Effect of inhibiting polyphenol oxidase activity on dextran aggregation; assay type: cell-based; details: for effect on polyphenol oxidase induced inactivation: protease inhibitors added before polyphenol oxidase
Description: (§1) The standard rate assay published by Drake et al. (Drake D. et al. Infect. Immun. 56:1864-1872 (1988)) was used to study the interaction of S. sobrinus 6715 glucan-binding lectin with high molecular weight dextran. Briefly, bacterial suspensions were adjusted to an optical density of 0.75-0.90 in PBS, and 3-ml suspensions were added to test tubes (13×100 mm). Dextran T-2000 was added at a final concentration of 10 1μg/ml and the suspensions were vortexed for 5 sec. Control tubes received PBS. The decrease in optical density was continuously monitored spectrophotometrically for 5 min. Rate constants were obtained from the slopes of first-order plots of ln A/A0 (A=observed optical density; A0 optical density at time zero) versus time in minutes. Each sample was assayed at least three times.
Cells were suspended in phosphate buffer (20 mM, pH 6.5) and treated with either polyphenol oxidase (Worthington Biochemical Corporation, Freehold N.J., Lot 37A889) (1260 U/ml) for 1 h at 37° C. with rotary shaking (150 rev/min), then washed twice with cold PBS. Inhibitors (all from Sigma), when present, were added before polyphenol oxidase addition at the following concentrations: phenylmethylsulfonyl fluoride (PMSF) 500 μM; leupeptin, 500 μg/ml; ethylenediaminetetracetic acid (EDTA), 5 mM, potassium chloride 200 mM; polyvinylpyrrolidone, 500 μg/m; ascorbic acid, 3 mM; lactic acid, 10%.

polyphenol oxidase [2] = assay: as above; assay type: cell-based; details: inhibitor concentration 2.5%
[3] = test system: E. coli possessing type 1 fimbriae / Saccharomyces cerevisiae cells; assay: Adhesion of E. coli to yeast; assay type: cell-based
Description: Materials and methods were generally as described in the previous Examples, but slightly modified for observing adhesion by E. coli to yeast. […] Cells were washed 2× in PBS and suspended in PB. Cells were treated with polyphenol oxidase at 37° C., washed 2×, and resuspended in PBS. E. coli (5×10^8 cells) were incubated with 1×10^5 Saccharomyces cerevisiae cells in a 3 ml volume and rotated with an end-over-end motion at 37° C. for 30 min. Suspensions were harvested, washed 2× in PBS and resuspended in 300 μl PBS. Methyl-α-D-mannose was added to some reaction mixtures. Ten μl samples were withdrawn and placed on a microscope slide, heat-fixed, stained with crystal violet for 2 min, rinsed and dried. Preparations were viewed at 1000× with phase-contrast microscopy. Numbers of bacteria bound to yeast cells were tabulated.

[4] = test system: type 1-fimbriated and P-fimbriated E. coli; assay: Growth inhibition of E. coli; assay type: cell-based; details: ampicillin 1 mg/ml to 0.015 mg/ml; polyphenol oxidase 1128 to 17.5 units/ml; asparaginase 20 to 0.31 units/ml; data not shown
Description: Similar and/or art recognized methods were used to monitor the effects of asparaginase on growth of other microbes including two strains of E. coli, S. pyogenes, Klebsiella pneumoniae, Bacillus cereus, and Proteus vulgaris. Both type 1-fimbriated and P-fimbriated E. coli were incubated with polyphenol oxidase, asparaginase, and ampicillin to test the ability of these agents to inhibit the growth of the bacteria.

[5] = test system: B. fragilis (adhesin) / A. naeslundii ATCC 12104 (receptor); assay: Coaggregation B. fragilis / A. naeslundii ATCC 12104; details: B. fragilis (adhesin) enzyme treated; polyphenol oxidase 90 U/ml
Description: S. sanguis 10556, A. naeslundii strains 12104 and T14V and E. coli were grown static cultures in Todd-Hewitt broth (BBL Microbiology Systems, Cockeysville, Md.). P. gingivalis W50, A. actinomycetemcomitans and C. ochracea were grown in brain heart infusion broth (BBL). F. nucleatum 22586 and P. intermedia 25611 were grown in modified Schaedler broth (BBL). All oral species except S. sanguis 10556 were incubated at 37° C. as static cultures under an anaerobic atmosphere containing H2, CO2 and N2(10:10:80) with GasPaks (BBL). S. sanguis was incubated at 37° C. as static cultures in 5% CO2.
Bacteria were harvested in the mid to late exponential growth phase by centrifugation (10,000×g for 10 min at 4° C.). The cells were washed twice in coaggregation buffer (30 mM 3-[N-morpholino]propanesulfonic acid (MOPS), pH 7.0) and adjusted to an optical density of 0.6-0.8 at 540 nm (1-cm path). […]
Coaggregation was assessed by turbidity changes. Following mixing of the cells for 10 s on a Vortex mixer, absorbance readings were made every 30 min. The percentage of coaggregation was calculated from the following formula: Percent coaggregation=[OD540(A)+OD540(B)−OD540(A+B)]/(OD540(A)+OD540(B)), where A is the control containing cells of one strain, B is the control containing cells of the other strain, and A+B is the reaction mixture containing both cells. […]

[6] = test system: S. sobrinus 6715 glucan-binding lectin; assay: Aggregation of S. sobrinus with high molecular weight dextran T-2000 (standard rate assay); assay type: cell-based, Streptococcus sobrinus; details: dextran T-10 1 mg/ml or glycogen 2.5 mg/ml before polyphenol oxidase treatment
Description: S. sobrinus 6715 was maintained on tryptic soy agar (Difco, Detroit, Mich.) and grown for experiments in Terleckyj's defined medium or tryptic soy broth (TSB) (Difco) pretreated with dextranase (1 mg of enzyme per g dry medium) and invertase (5 mg per g dry medium) for 2 h each in 5% CO2 at 37° C. for 16-18h. Cultures were centrifuged at 12,000×g for 10 min and washed twice with cold phosphate buffered saline (PBS, 20 mM, pH 7.2). Cells were suspended in PBS to an optical density of 0.8 (A540). Cultures grown in TSB were harvested and suspended in PBS and subsequently treated with dextranase for 1 h, followed by washing two times in PBS.
as §1, with “Each sample was assayed at least three times.” left out

[7] = known polyphenol oxidase inhibitors

O=C(O)CN(CCN(CC(=O)O)CC(=O)O)CC(=O)O [EDTA, ethylenediaminetetracetic acid]
Percent Inhibition of Polyphenol Oxidase Induced Reduction in Aggregation (polyphenol oxidase [1]): 100%
effect on the effects of polyphenol oxidase on glucan aggregation (polyphenol oxidase [1]): reduced the effects

[Cl-].[K+] [KCl, potassium chloride]
effect on the effects of polyphenol oxidase on glucan aggregation (polyphenol oxidase [1]; [7]): reduced the effects
Percent Inhibition of Polyphenol Oxidase Induced Reduction in Aggregation (polyphenol oxidase [2]): 100%

COC1OC(CO)C(O)C(O)C1O [Methyl-α-mannose, Methyl-α-D-mannose]
effect of preincubating E. coli before polyphenol oxidase treatment [3]: eliminated polyphenol oxidase mediated reduction of adhesion
attachment of control cells to Saccharomyces ([3]; added to control cells): prevented their attachment

O=S(=O)(F)Cc1ccccc1 [PMSF, phenylmethylsulfonyl fluoride]
Percent Inhibition of Polyphenol Oxidase Induced Reduction in Aggregation (polyphenol oxidase [1]; inhibitor concentration 500 μM): 0%
effect on polyphenol oxidase induced inactivation (polyphenol oxidase [1]): completely inhibited

CC1(C)S[C@@H]2[C@H](NC(=O)[C@H](N)c3ccccc3)C(=O)N2[C@H]1C(=O)O [ampicillin, reference compound]
inhibition of growth of P-fimbriated E. coli [4]: inhibited the growth
inhibition of growth of type 1-fimbriated E. coli [4]: inhibited the growth

O=C1O[C@H]([C@@H](O)CO)C(O)=C1O [ascorbic acid]
Percent Inhibition of Polyphenol Oxidase Induced Reduction in Aggregation (polyphenol oxidase [1]; inhibitor concentration 3 mM): 100%
effect on the effects of polyphenol oxidase on glucan aggregation (polyphenol oxidase [1]; [7]): reduced the effects

CC(O)C(=O)O (stereo not drawn) [lactic acid]
Percent Inhibition of Polyphenol Oxidase Induced Reduction in Aggregation (polyphenol oxidase [1]; inhibitor concentration 10%): 92 (+/−8) Percent
effect on the effects of polyphenol oxidase on glucan aggregation (polyphenol oxidase [1]; [7]): reduced the effects

CC(=O)N[C@@H](CC(C)C)C(=O)N[C@@H](CC(C)C)C(=O)N[C@H](C=O)CCCNC(=N)N [leupeptin]
Percent Inhibition of Polyphenol Oxidase Induced Reduction in Aggregation (polyphenol oxidase [1]; inhibitor concentration 500 μg/ml): 0%
effect on polyphenol oxidase induced inactivation (polyphenol oxidase [1]): completely inhibited

Per: horseradish peroxidase
Inhibition % of coaggregation [5]: 11%

glycogen [reference compound]
effect of pre-incubating the bacteria with carbohydrate on the polyphenol oxidase inhibition of aggregation [6]: no effect
